Laboratory results as given in patent publication US6811766B1, “Ultrasound imaging with contrast agent targeted to microvasculature and a vasodilator drug” (Amersham Health AS, priority 1997, dated 2004).

Assays:
[1] = test system: healthy myocardial tissue; conditions: adenosine vasodilatation; cited from earlier work
[2] = Heart rate under continuous dobutamine infusion; assay type: in vivo; conditions: dog, continuous dobutamine infusion 15 μg/kg/min, stable effect; normal 100 beats per minute
Experimental: Example 1 was repeated except that a continuous infusion of dobutamine at a rate of 15 μg/kg/min was administered in place of adenosine. After a stable dobutamine effect consisting of an increase in heart rate from the normal 100 beats per minute to 150 beats per minute was obtained, the microbubble dispersion and the emulsion were intravenously injected from two syringes as a simultaneous bolus. Infusion of dobutamine was continued for another 2 minutes after the contrast agent injection.

Row | Compound | increase of coronary blood flow in healthy myocardial tissue [1] | heart rate [2] [beats per minute]
1 | Nc1ncnc2c1ncn2[C@@H]1O[C@H](CO)[C@@H](O)[C@H]1O [adenosine] | more than 400% | 
2 | CC(CCc1ccc(O)cc1)NCCc1ccc(O)c(O)c1 (centres unmarked) [dobutamine] |  | 150
